Like-named read-outs stand apart in the source and are kept apart here.
Experiments:
Assay in all cases: Glasshouse assay for herbicidal activity (pre- and post-emergence), percentage phytotoxicity
Format in all cases: in vivo
[1] = test system: Alopecurus myosuroides (ALOMY); conditions: Alopecurus myosuroides
Summary of the method: (§1)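 Sow seed in standard soil in pots; apply test herbicide after 1 day (PRE) or about 12 days (POST). Grow on in the glasshouse, watering twice daily, cool-season species at 20/16 °C and warm-season at 24/18 °C. Score visible damage (0–100%) at 20 or 15 DAA respectively.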

[2] = test system: Echinochloa crus-galli (ECHCG); conditions: Echinochloa crus-galli
Summary of the method: as §1

Lolium perenne (LOLPE) = conditions: Lolium perenne
Summary of the method: as §1

Avena fatua (AVEFA) = conditions: Avena fatua
Summary of the method: as §1

[3] = post-emergence, 360 h, POST-emergence, rate 250 g/ha, visual score 15 DAA (100%=total damage, 0%=no damage), read-out: Post-emergence herbicidal activity (percentage phytotoxicity) ALOMY POST
[4] = pre-emergence, 480 h, PRE-emergence, rate 250 g/ha, visual score 20 DAA (100%=total damage, 0%=no damage), read-out: Pre-emergence herbicidal activity (percentage phytotoxicity) ALOMY PRE
[5] = post-emergence, 360 h, POST-emergence, rate 250 g/ha, visual score 15 DAA (100%=total damage, 0%=no damage), read-out: Post-emergence herbicidal activity (percentage phytotoxicity) ECHCG POST
[6] = pre-emergence, 480 h, PRE-emergence, rate 250 g/ha, visual score 20 DAA (100%=total damage, 0%=no damage), read-out: Pre-emergence herbicidal activity (percentage phytotoxicity) ECHCG PRE
[7] = post-emergence, 360 h, POST-emergence, rate 250 g/ha, visual score 15 DAA (100%=total damage, 0%=no damage), read-out: Post-emergence herbicidal activity (percentage phytotoxicity) LOLPE POST
[8] = pre-emergence, 480 h, PRE-emergence, rate 250 g/ha, visual score 20 DAA (100%=total damage, 0%=no damage), read-out: Pre-emergence herbicidal activity (percentage phytotoxicity) LOLPE PRE
[9] = post-emergence, 360 h, POST-emergence, rate 250 g/ha, visual score 15 DAA (100%=total damage, 0%=no damage), read-out: Post-emergence herbicidal activity (percentage phytotoxicity) AVEFA POST
[10] = pre-emergence, 480 h, PRE-emergence, rate 250 g/ha, visual score 20 DAA (100%=total damage, 0%=no damage), read-out: Pre-emergence herbicidal activity (percentage phytotoxicity) AVEFA PRE
[11] = post-emergence, 360 h, 250 g/ha, post-emergence, 15 DAA, visual assessment (100%=total damage, 0%=no damage), read-out: Post-emergence herbicidal activity (percentage phytotoxicity) ALOMY POST
[12] = pre-emergence, 480 h, 250 g/ha, pre-emergence, 20 DAA, visual assessment (100%=total damage, 0%=no damage), read-out: Pre-emergence herbicidal activity (percentage phytotoxicity) ALOMY PRE
[13] = post-emergence, 360 h, 250 g/ha, post-emergence, 15 DAA, visual assessment (100%=total damage, 0%=no damage), read-out: Post-emergence herbicidal activity (percentage phytotoxicity) ECHCG POST
[14] = pre-emergence, 480 h, 250 g/ha, pre-emergence, 20 DAA, visual assessment (100%=total damage, 0%=no damage), read-out: Pre-emergence herbicidal activity (percentage phytotoxicity) ECHCG PRE
[15] = post-emergence, 360 h, 250 g/ha, post-emergence, 15 DAA, visual assessment (100%=total damage, 0%=no damage), read-out: Post-emergence herbicidal activity (percentage phytotoxicity) LOLPE POST
[16] = pre-emergence, 480 h, 250 g/ha, pre-emergence, 20 DAA, visual assessment (100%=total damage, 0%=no damage), read-out: Pre-emergence herbicidal activity (percentage phytotoxicity) LOLPE PRE
[17] = post-emergence, 360 h, 250 g/ha, post-emergence, 15 DAA, visual assessment (100%=total damage, 0%=no damage), read-out: Post-emergence herbicidal activity (percentage phytotoxicity) AVEFA POST
[18] = pre-emergence, 480 h, 250 g/ha, pre-emergence, 20 DAA, visual assessment (100%=total damage, 0%=no damage), read-out: Pre-emergence herbicidal activity (percentage phytotoxicity) AVEFA PRE

C/C=C/CNC(=O)CC1CC(=O)C(c2c(C)cc(Br)cc2C)C1=O (stereo not drawn) [Compound B177]
pest or weed control at 250 g/ha [1, 3]: 80% | pest or weed control at 250 g/ha [1, 4]: 90% | pest or weed control at 250 g/ha [2, 5]: 90% | pest or weed control at 250 g/ha [2, 6]: 90% | pest or weed control at 250 g/ha (Lolium perenne (LOLPE); [7]): 80% | pest or weed control at 250 g/ha (Lolium perenne (LOLPE); [8]): 90% | pest or weed control at 250 g/ha (Avena fatua (AVEFA); [9]): 80% | pest or weed control at 250 g/ha (Avena fatua (AVEFA); [10]): 30%

Cc1cc(-c2ccc(F)cn2)cc(C)c1C1C(=O)CC(CC(=O)NC(C)C)C1=O (stereo not drawn) [Compound B385]
pest or weed control at 250 g/ha ([1]; post-emergence, 360 h, Rate 250 g/ha, post-emergence, visual assessment 15 DAA, 100%=total damage, 0%=no damage, read-out: Post-emergence herbicidal activity (percentage phytotoxicity) ALOMY POST): 100% | pest or weed control at 250 g/ha ([1]; pre-emergence, 480 h, Rate 250 g/ha, pre-emergence, visual assessment 20 DAA, 100%=total damage, 0%=no damage, read-out: Pre-emergence herbicidal activity (percentage phytotoxicity) ALOMY PRE): 100% | pest or weed control at 250 g/ha ([2]; post-emergence, 360 h, Rate 250 g/ha, post-emergence, visual assessment 15 DAA, 100%=total damage, 0%=no damage, read-out: Post-emergence herbicidal activity (percentage phytotoxicity) ECHCG POST): 100% | pest or weed control at 250 g/ha ([2]; pre-emergence, 480 h, Rate 250 g/ha, pre-emergence, visual assessment 20 DAA, 100%=total damage, 0%=no damage, read-out: Pre-emergence herbicidal activity (percentage phytotoxicity) ECHCG PRE): 100% | pest or weed control at 250 g/ha (Lolium perenne (LOLPE); post-emergence, 360 h, Rate 250 g/ha, post-emergence, visual assessment 15 DAA, 100%=total damage, 0%=no damage, read-out: Post-emergence herbicidal activity (percentage phytotoxicity) LOLPE POST): 100% | pest or weed control at 250 g/ha (Lolium perenne (LOLPE); pre-emergence, 480 h, Rate 250 g/ha, pre-emergence, visual assessment 20 DAA, 100%=total damage, 0%=no damage, read-out: Pre-emergence herbicidal activity (percentage phytotoxicity) LOLPE PRE): 100% | pest or weed control at 250 g/ha (Avena fatua (AVEFA); post-emergence, 360 h, Rate 250 g/ha, post-emergence, visual assessment 15 DAA, 100%=total damage, 0%=no damage, read-out: Post-emergence herbicidal activity (percentage phytotoxicity) AVEFA POST): 100% | pest or weed control at 250 g/ha (Avena fatua (AVEFA); pre-emergence, 480 h, Rate 250 g/ha, pre-emergence, visual assessment 20 DAA, 100%=total damage, 0%=no damage, read-out: Pre-emergence herbicidal activity (percentage phytotoxicity) AVEFA PRE): 100%

C=CCNC(=O)CC1CC(=O)C(c2c(C)cc(C)cc2CC)C1=O (stereo not drawn) [Compound B256]
pest or weed control at 250 g/ha [1, 3]: 100% | pest or weed control at 250 g/ha [1, 4]: 100% | pest or weed control at 250 g/ha [2, 5]: 100% | pest or weed control at 250 g/ha [2, 6]: 100% | pest or weed control at 250 g/ha (Lolium perenne (LOLPE); [7]): 100% | pest or weed control at 250 g/ha (Lolium perenne (LOLPE); [8]): 100% | pest or weed control at 250 g/ha (Avena fatua (AVEFA); [9]): 100% | pest or weed control at 250 g/ha (Avena fatua (AVEFA); [10]): 100%

Cc1cc(C)c(C2C(=O)CC(CC(=O)NC3(C)CCC3)C2=O)c(C)c1 (stereo not drawn) [Compound B32]
pest or weed control at 250 g/ha [1, 11]: 70% | pest or weed control at 250 g/ha [1, 12]: 90% | pest or weed control at 250 g/ha [2, 13]: 80% | pest or weed control at 250 g/ha [2, 14]: 80% | pest or weed control at 250 g/ha (Lolium perenne (LOLPE); [15]): 50% | pest or weed control at 250 g/ha (Lolium perenne (LOLPE); [16]): 90% | pest or weed control at 250 g/ha (Avena fatua (AVEFA); [17]): 40% | pest or weed control at 250 g/ha (Avena fatua (AVEFA); [18]): 0%

COc1ccc(CNC(=O)CC2CC(=O)C(c3c(C)cc(-c4ncc(F)cc4F)cc3C)C2=O)cc1 (stereo not drawn) [Compound B91]
pest or weed control at 250 g/ha [1, 11]: 100% | pest or weed control at 250 g/ha [1, 12]: 80% | pest or weed control at 250 g/ha [2, 13]: 100% | pest or weed control at 250 g/ha [2, 14]: 80% | pest or weed control at 250 g/ha (Lolium perenne (LOLPE); [15]): 100% | pest or weed control at 250 g/ha (Lolium perenne (LOLPE); [16]): 90% | pest or weed control at 250 g/ha (Avena fatua (AVEFA); [17]): 100% | pest or weed control at 250 g/ha (Avena fatua (AVEFA); [18]): 70%

Cc1cc(-c2ncc(F)cc2F)cc(C)c1C1C(=O)CC(CC(=O)N2CCOCC2)C1=O (stereo not drawn) [Compound B101]
pest or weed control at 250 g/ha [1, 11]: 90% | pest or weed control at 250 g/ha [1, 12]: 90% | pest or weed control at 250 g/ha [2, 13]: 100% | pest or weed control at 250 g/ha [2, 14]: 100% | pest or weed control at 250 g/ha (Lolium perenne (LOLPE); [15]): 100% | pest or weed control at 250 g/ha (Lolium perenne (LOLPE); [16]): 100% | pest or weed control at 250 g/ha (Avena fatua (AVEFA); [17]): 90% | pest or weed control at 250 g/ha (Avena fatua (AVEFA); [18]): 70%

Reference: patent publication US10206394B2, “Herbicidal compounds” (Syngenta Participations AG, priority 2014, dated 2019)
